Literature values as cited in the PKSmart pharmacokinetics tables (Seal et al. 2025).

What was measured:
[1] = Lombardo, Berellini, Obach 2018, Drug Metab Dispos 46:1466, doi 10.1124/dmd.118.082966; conditions: human; for MRT / Vd / clearance / half-life: in vivo, iv; for fraction unbound: plasma
[2] = Lombardo et al. 2013, J Clin Pharmacol 53:178, doi 10.1177/0091270012440282; conditions: for Vd / clearance: in vivo, iv; for fraction unbound: plasma

Row | Structure (SMILES) | MRT [1] [h] | Vd [1] [L/kg] | clearance [1] [mL/min/kg] | half-life [1] [h] | fraction unbound [1] | Vd ([2]; dog) [L/kg] | clearance ([2]; dog) [mL/min/kg] | fraction unbound ([2]; dog) | Vd ([2]; monkey) [L/kg] | clearance ([2]; monkey) [mL/min/kg] | fraction unbound ([2]; monkey) | Vd ([2]; rat) [L/kg] | clearance ([2]; rat) [mL/min/kg] | fraction unbound ([2]; rat)
1 | CO[C@@]1(NC(=O)C(C(=O)O)c2ccc(O)cc2)C(=O)N2C(C(=O)O)=C(CSc3nnnn3C)CO[C@@H]21 (some centres not stated) | 3.9 | 0.17 | 0.72 | 2.9 | 0.39 | 0.2 | 2.2 | 0.66 | 0.19 | 2.3 | 1 | 0.25 | 9.1 | 1
2 | COCCCOc1ccnc(C[S+](O)c2nc3ccccc3[n-]2)c1C (configuration not stated) | 0.92 | 0.22 | 4 | 1 |  | 2.62 | 86 | 0.0864 |  |  |  | 1.04 | 82.4 | 0.073
3 | CNS(=O)(=O)Cc1ccc2[nH]cc(CCN(C)C)c2c1 | 1.5 | 1.7 | 19 | 1.7 |  | 1.74 | 13.9 | 0.86 |  |  |  | 1.15 | 28 | 0.85
4 | CC#CCC(C)[C@H](O)/C=C/[C@@H]1[C@H]2C/C(=C/CCCC(=O)O)C[C@H]2C[C@H]1O (some centres not stated) |  | 0.37 | 16 | 0.57 | 0.4 | 0.93 | 67.2 |  |  |  |  | 0.79 | 32.4 | 
5 | CCCN1CCCCC1C(=O)Nc1c(C)cccc1C (configuration not stated) | 2.3 | 0.75 | 5.5 | 2.2 | 0.06 | 1.42 | 30 |  |  |  |  |  |  | 
6 | Cc1ncc([N+](=O)[O-])n1CCO | 7.8 | 0.4 | 0.85 | 7.1 |  | 0.1 | 2.5 | 0.983 |  |  |  | 1.2 | 5.8 | 
7 | CCOc1ccc(NC(C)=O)cc1 | 1.1 | 1.4 |  | 0.92 | 0.47 | 0.89 | 15.7 |  |  |  |  |  |  | 
8 | COc1cc([C@@H]2c3cc4c(cc3[C@@H](O[C@@H]3O[C@@H]5CO[C@@H](C)O[C@H]5[C@H](O)[C@H]3O)[C@H]3COC(=O)C23)OCO4)cc(OC)c1O (some centres not stated) | 6 | 0.18 |  | 5.7 |  | 1.4 | 13 | 0.63 | 0.16 | 1.5 | 0.0051 | 0.58 | 23 | 0.43
9 | C[C@@H](O)C1C(=O)N2C(C(=O)O)=C(S[C@@H]3CNC(C(=O)N(C)C)C3)[C@H](C)[C@H]12 (some centres not stated) | 1.3 | 0.3 | 3.9 | 1 | 0.87 | 0.22 | 4 | 0.726 | 0.23 | 7.5 | 0.666 | 0.14 | 26.4 | 0.5
10 | CO[C@@]1(NC(=O)CSCC#N)C(=O)N2C(C(=O)O)=C(CSc3nnnn3C)CS[C@@H]21 | 1.5 | 0.13 | 1.5 | 1.5 | 0.15 | 0.9 | 8 | 0.75 | 0.3 | 3.3 | 0.34 | 0.35 | 25.3 | 0.55
11 | Cc1cn([C@H]2C=C[C@@H](CO)O2)c(=O)[nH]c1=O | 1.4 | 0.67 | 8.2 | 1.4 | 1 |  |  | 0.9 | 0.8 | 9.4 | 0.9 | 1.09 | 20.2 | 0.9
12 | COC(=O)C(c1ccccc1)C1CCCCN1 (configuration not stated) | 4.5 | 2.2 | 9.42 | 4.8 | 0.85 |  |  |  |  |  |  | 3 | 53 | 
13 | Cc1cccc(C)c1NC(=O)C(C)N (configuration not stated) | 14 | 1.8 | 2.2 | 12 |  |  |  |  |  |  |  | 5 | 37.8 | 
14 | C[C@@H](O)C1C(=O)N2C(C(=O)O)=C(S[C@@H]3CNC(C(=O)Nc4cccc(C(=O)O)c4)C3)[C@H](C)[C@H]12 (some centres not stated) | 4.4 | 0.12 | 0.45 | 3.8 | 0.1 |  |  |  | 0.17 | 0.47 |  | 0.34 | 10 | 
15 | Cc1cccc(C)c1NC(=O)NCCCNC(C)C | 5.2 | 1.4 | 4.5 | 5 | 0.86 | 1.2 | 13 | 0.7 | 3 | 26.7 | 0.69 | 3.2 | 82 | 0.88
16 | C=CC1=C(C(=O)O)N2C(=O)C(=NC(=O)C(NOCC(=O)O)c3csc(N)n3)[C@H]2SC1 (some centres not stated) |  | 0.24 | 1 | 3.2 |  | 0.24 | 0.4 | 0.07 |  |  |  | 0.4 | 6 | 0.4
17 | C[C@]12C=CC(=O)C=C1CC[C@@H]1[C@@H]2[C@@H](O)C[C@@]2(C)[C@H]1CC[C@]2(O)C(=O)CO |  |  |  |  | 0.25 |  |  |  |  |  |  | 1.74 | 98.7 | 0.32
18 | COCCOC(=O)C1=C(C)NC(C)=C(C(=O)OC(C)C)C1c1cccc([N+](=O)[O-])c1 (configuration not stated) | 1.2 | 1.1 |  | 1.3 |  | 3 | 18 | 0.03 | 3.62 | 33 | 0.095 | 5.5 | 19.6 | 0.03
19 | OCCN1CCN(CCCN2c3ccccc3Sc3ccc(C(F)(F)F)cc32)CC1 | 5 | 2.9 | 9.7 | 12.3 | 0.04 | 5.5 | 15.4 |  |  |  |  |  |  | 
20 | CNCC[C@@H](Oc1ccccc1C)c1ccccc1 | 1.5 | 0.85 | 9.3 | 5.2 |  |  |  |  |  |  |  | 4.3 | 36 | 0.11
21 | CCCN(CCC)S(=O)(=O)c1ccc(C(=O)O)cc1 | 8.7 | 0.13 | 0.25 | 5.9 |  | 0.46 | 0.34 | 0.15 |  |  |  |  |  | 
22 | CC[C@@]1(O)CC(=O)OCc2c1cc1n(c2=O)Cc2cc3cc(F)c(F)cc3nc2-1 | 3.87 | 1.42 | 8.42 | 3.1 | 0.126 | 2.1 | 21.5 |  |  |  |  | 2 | 23 | 
23 | C[C@@H](O)C1C(=O)N2C(C(=O)O)=C(COC(N)=O)S[C@H]12 (some centres not stated) | 0.54 | 0.24 | 7.55 | 0.54 | 0.72 | 0.22 | 7.4 | 0.95 | 0.14 | 4.65 | 0.56 | 0.05 | 15.5 | 0.5
24 | CON=C(C(=O)NC1C(=O)N2C(C(=O)O)=C(CSc3nc(C)c(CC(=O)O)s3)CS[C@H]12)c1csc(N)n1 (some centres not stated) | 1.5 | 0.054 | 0.61 | 4.2 | 0.18 | 0.26 | 4.1 | 0.243 | 0.15 | 1.2 | 1 | 0.18 | 1.1 | 0.0097
25 | CN(c1nc2ccccc2s1)C1CCN(C[C@H](O)COc2ccc(F)c(F)c2)CC1 |  |  |  |  | 0.003 |  |  |  |  |  |  |  |  | 0.008
